Consider 22 compounds from patent publication US11839613B2, “Pyrimidine derivatives as PGE2 receptor modulators” (IDORSIA PHARMACEUTICALS LTD, priority 2017, dated 2023).

Each structure is given as a SMILES string.

One test concerns the target PTGER4 (EP4) (Homo sapiens (Human), UniProt P35408). Kind of test: cell-based.
The target in the next test is PTGER2 (EP2) (Homo sapiens (Human), UniProt P43116). The experiment in a line: hEP2 b-arrestin assay (PathHunter HEK 293 PTGER2 b-arrestin cells). Conditions: antagonistic activity, beta-arrestin assay; read-out: hEP2 b-arr IC50. In kind it is cell-based. On the procedure: Plate is pre-incubated 15 minutes at 37° C. Then five microliters of PGE2 (final conc. 5 μM) are transferred into the assay plate. Plate is incubated 120 minutes at 37° C.
Sequence of PTGER2 (EP2) (P43116 whole entry): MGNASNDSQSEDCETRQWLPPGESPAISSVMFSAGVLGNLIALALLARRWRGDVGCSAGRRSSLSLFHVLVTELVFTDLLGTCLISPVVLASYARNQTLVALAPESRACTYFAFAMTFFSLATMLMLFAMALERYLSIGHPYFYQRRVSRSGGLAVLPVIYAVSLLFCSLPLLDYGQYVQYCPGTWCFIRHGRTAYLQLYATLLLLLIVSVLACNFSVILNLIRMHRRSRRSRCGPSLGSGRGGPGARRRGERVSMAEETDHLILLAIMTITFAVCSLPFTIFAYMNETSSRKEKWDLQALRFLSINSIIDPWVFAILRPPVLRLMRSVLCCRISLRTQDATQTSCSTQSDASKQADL
(each concentration is measured in duplicate)

Sequence of PTGER4 (EP4) (P35408 whole entry): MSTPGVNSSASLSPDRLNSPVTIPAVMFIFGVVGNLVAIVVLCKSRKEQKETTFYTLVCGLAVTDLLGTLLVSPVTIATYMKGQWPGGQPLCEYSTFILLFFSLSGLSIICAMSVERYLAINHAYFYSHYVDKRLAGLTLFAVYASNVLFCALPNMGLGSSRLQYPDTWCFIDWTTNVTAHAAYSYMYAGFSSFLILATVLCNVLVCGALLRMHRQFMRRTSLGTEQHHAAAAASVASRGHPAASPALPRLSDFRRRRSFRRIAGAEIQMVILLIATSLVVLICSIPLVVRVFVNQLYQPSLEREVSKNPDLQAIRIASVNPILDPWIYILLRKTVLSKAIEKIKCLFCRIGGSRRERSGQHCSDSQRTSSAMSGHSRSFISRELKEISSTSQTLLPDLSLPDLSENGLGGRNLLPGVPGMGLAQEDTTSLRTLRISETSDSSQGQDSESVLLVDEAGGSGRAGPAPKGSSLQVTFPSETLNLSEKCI

On to `CCOc1cc2c(cc1CCNc1cc(-c3ccc(C(=O)O)c(OC4CC4)c3)ncn1)OCCO2` [Example 447, 2-Cyclopropoxy-4-{6-[2-(7-ethoxy-2,3-dihydro-benzo[1,4]dioxin-6-yl)-ethylamino]-pyrimidin-4-yl}-benzoic acid], for which the IC50 amounted to 130 nM on PTGER4 (EP4) and 2 nM on PTGER2 (EP2).
The corresponding values for `CC(C)Cc1cc(-c2cc(NCCc3ccc4sccc4c3F)ncn2)ccc1C(=O)O` [Example 413, 4-{6-[2-(4-Fluoro-benzo[b]thiophen-5-yl)-ethylamino]-pyrimidin-4-yl}-2-isobutyl-benzoic acid] are 41 nM and 62 nM.
On to `CCCc1cc(-c2cc(NCCc3cc(F)c4sccc4c3)ncn2)cc(OCC)c1C(=O)O` [Example 551, 2-Ethoxy-4-{6-[2-(7-fluoro-benzo[b]thiophen-5-yl)-ethylamino]-pyrimidin-4-yl}-6-propyl-benzoic acid], for which the IC50 came out at 867 nM at PTGER4 (EP4) and 900 nM on PTGER2 (EP2).
Taken in the same sequence, the figures for `COc1c(CCNc2cc(-c3ccc(C(=O)O)c(CC(C)C)c3)ncn2)cc2ccsc2c1F` [Example 415, 4-{6-[2-(7-Fluoro-6-methoxy-benzo[b]thiophen-5-yl)-ethylamino]-pyrimidin-4-yl}-2-isobutyl-benzoic acid] were 52 nM and 63 nM.
Taken in the same sequence, the figures for `O=C(O)c1ccc(-c2cc(NCCc3cc(F)c4sccc4c3)ncn2)c2cc[nH]c12` [Example 558, 4-{6-[2-(7-Fluoro-benzo[b]thiophen-5-yl)-ethylamino]-pyrimidin-4-yl}-1H-indole-7-carboxylic acid] were 539 nM and 684 nM.
Taken in the same sequence, the figures for `CCOc1cc2c(cc1CCNc1cc(-c3ccc(C(=O)O)c(CC(C)C)c3)ncn1)OCCO2` [Example 417, 4-{6-[2-(7-Ethoxy-2,3-dihydro-benzo[1,4]dioxin-6-yl)-ethylamino]-pyrimidin-4-yl}-2-isobutyl-benzoic acid] were 174 nM and 38 nM.
`CCCc1cc(-c2cc(NCCc3cc4c(cc3OCC)OCCO4)ncn2)ccc1C(C)C(=O)O` (racemic) [Example 487, rac-2-(4-{6-[2-(7-Ethoxy-2,3-dihydro-benzo[1,4]dioxin-6-yl)-ethylamino]-pyrimidin-4-yl}-2-propyl-phenyl)-propionic acid]: the half-inhibitory concentration (IC50) was 136 nM against PTGER4 (EP4) and 59 nM at PTGER2 (EP2).
For the compound `CCc1cc(-c2cc(NCCc3ccc4ccccc4c3C)ncn2)ccc1C(=O)O` [Example 517, 2-Ethyl-4-{6-[2-(1-methyl-naphthalen-2-yl)-ethylamino]-pyrimidin-4-yl}-benzoic acid], the IC50 came out at 288 nM against PTGER4 (EP4) and 108 nM at PTGER2 (EP2).
The corresponding values for `CCOc1c(C(=O)O)ccc(-c2cc(NCCc3cc(F)c4sccc4c3)ncn2)c1F` [Example 552, 2-Ethoxy-3-fluoro-4-{6-[2-(7-fluoro-benzo[b]thiophen-5-yl)-ethylamino]-pyrimidin-4-yl}-benzoic acid] are 385 nM and 577 nM.
Taken in the same sequence, the figures for `CCCc1cc(-c2cc(NCCc3ccc4sccc4c3F)ncn2)ccc1C(C)C(=O)O` (racemic) [Example 482, rac-2-(4 -{6-[2-(4-Fluoro-benzo[b]thiophen-5-yl)-ethylamino]-pyrimidin-4-yl}-2-propyl-phenyl)-propionic acid] were 91 nM and 444 nM.
The corresponding values for `CCOc1cc(-c2cc(NCCc3cc(F)c4sccc4c3)ncn2)sc1CCC(=O)O` [Example 535, 3-(3-Ethoxy-5-{6-[2-(7-fluoro-benzo[b]thiophen-5-yl)-ethylamino]-pyrimidin-4-yl}-thiophen-2-yl)-propionic acid] are 42 nM and 871 nM.
With `CC(C)Oc1cc(-c2cc(NCCc3ccc4sccc4c3F)ncn2)ccc1CC(=O)O` [Example 424, (4-{6-[2-(4-Fluoro-benzo[b]thiophen-5-yl)-ethylamino]-pyrimidin-4-yl}-2-isopropoxy-phenyl)-acetic acid], the IC50 at PTGER4 (EP4) amounted to 80 nM; on PTGER2 (EP2) it was 424 nM.
Taken in the same sequence, the figures for `CCc1cc(-c2cc(NCCc3ccc4c(c3C)OCCO4)ncn2)ccc1CC(=O)O` [Example 513, (2-Ethyl-4-{6-[2-(5-methyl-2,3-dihydro-benzo[1,4]dioxin-6-yl)-ethylamino]-pyrimidin-4-yl}-phenyl)-acetic acid] were 347 nM and 158 nM.
The corresponding values for `CCCc1cc(-c2cc(NCCc3ccc4c(c3C)OCCO4)ncn2)ccc1CC(=O)O` [Example 504, (4-{6-[2-(5-Methyl-2,3-dihydro-benzo[1,4]dioxin-6-yl)-ethylamino]-pyrimidin-4-yl}-2-propyl-phenyl)-acetic acid] are 167 nM and 108 nM.
Regarding `O=C(O)c1ccc(-c2cc(NCCc3ccc4sccc4c3F)ncn2)cc1OC1CCC1` [Example 366, 2-Cyclobutoxy-4-{6-[2-(4-fluoro-benzo[b]thiophen-5-yl)-ethylamino]-pyrimidin-4-yl}-benzoic acid], the IC50 against PTGER4 (EP4) was 119 nM; at PTGER2 (EP2), 84 nM.
`O=C(O)c1cccc2cc(-c3cc(NCCc4cc(F)c5sccc5c4)ncn3)[nH]c12` [Example 561, 2-{6-[2-(7-Fluoro-benzo[b]thiophen-5-yl)-ethylamino]-pyrimidin-4-yl}-1H-indole-7-carboxylic acid]: the IC50 against PTGER4 (EP4) amounted to 103 nM; on PTGER2 (EP2), 388 nM.
Take `CCCc1cc(-c2cc(NCCc3ccc4c(c3)OCCO4)ncn2)ccc1CC(=O)O` [Example 527, (4-{6-[2-(2,3-Dihydro-benzo[1,4]dioxin-6-yl)-ethylamino]-pyrimidin-4-yl}-2-propyl-phenyl)-acetic acid]: the values for the IC50 on PTGER4 (EP4) and on PTGER2 (EP2) were 337 nM and 892 nM, respectively.
For `CSc1cc(-c2cc(NCCc3ccc4scc(Cl)c4c3)ncn2)ccc1C(=O)O` [Example 429, 4-{6-[2-(3-Chloro-benzo[b]thiophen-5-yl)-ethylamino]-pyrimidin-4-yl}-2-methylsulfanyl-benzoic acid], the IC50 came to 60 nM on PTGER4 (EP4) and 52 nM on PTGER2 (EP2).
In the case of `O=C(O)c1n[nH]c2cc(-c3cc(NCCc4cc(F)c5sccc5c4)ncn3)ccc12` [Example 562, 6-{6-[2-(7-Fluoro-benzo[b]thiophen-5-yl)-ethylamino]-pyrimidin-4-yl}-1H-indazole-3-carboxylic acid], the figures for the IC50 on PTGER4 (EP4) and at PTGER2 (EP2) were 689 nM and 803 nM, respectively.
The corresponding values for `CCCOc1cc(-c2cc(NCCc3ccc4sccc4c3)ncn2)ccc1CC(=O)O` [Example 479, {4-[6-(2-Benzo[b]thiophen-5-yl-ethylamino)-pyrimidin-4-yl]-2-propoxy-phenyl}-acetic acid] are 158 nM and 345 nM.
The corresponding values for `CCOc1cc(-c2cc(NCCc3c(OC)cc4ccccc4c3C)ncn2)cc(F)c1CC(=O)O` [Example 374, (2-Ethoxy-6-fluoro-4-{6-[2-(3-methoxy-1-methyl-naphthalen-2-yl)-ethylamino]-pyrimidin-4-yl}-phenyl)-acetic acid] are 52 nM and 334 nM.
Regarding `CCOc1cc(-c2cc(NCCc3ccc4ccccc4c3C)ncn2)ccc1Cc1noc(=O)[nH]1` [Example 566, 3-(2-Ethoxy-4-{6-[2-(1-methyl-naphthalen-2-yl)-ethylamino]-pyrimidin-4-yl}-benzyl)-[1,2,4]oxadiazol-5(4H)-one], the IC50 at PTGER4 (EP4) was 159 nM; on PTGER2 (EP2) it was 297 nM.
